US10947263B2, “Cyclic dinucleotides as anticancer agents” (BRISTOL-MYERS SQUIBB COMPANY, priority 2017, dated 2021)
Where two headings read alike, the source gives them in different places.

Tests used:
[1] = system: STING / IRF pathway in THP1-Dual cells; experiment: STING THP1 Reporter Assay, IRF pathway (secreted Lucia luciferase, QUANTI-Luc); format: cell-based; settings: 10% human plasma, 100% activation = 100 μM cGAMP, luciferase readout, read-out: THP1 Reporter Assays EC50 IRF3
Text: (§1) THP1-Dual™ cells were derived from the human THP-1 monocyte cell line by stable integration of two inducible reporter constructs. To this end, THP1-Dual™ cells allow the simultaneous study of the […], by monitoring the activity of SEAP, and the IRF pathway by assessing the activity of a secreted luciferase (Lucia). Both reporter proteins are readily measurable in the cell culture supernatant when using QUANTI-Blue™, a SEAP detection reagent, and QUANTI-Luc™, a luciferase detection reagent.
(§2) THP1-Dual™ cells induce the activation of NF-κB in response to STING agonists. They also trigger the IRF pathway upon stimulation with STING agonists, such as cGAMP. Here, the THP-1-Dual cells were used to assess STING binders for function on the cellular level.
(§3) Serial dilutions of compounds in DMSO were added to low volume 384 well plates at 100 nl/well using an ECHO acoustic dispenser (Labcyte, model 550) to achieve final starting concentration of 100 μM in cell suspension. THP-1 Dual™ STING reporter cells (Invivogen, Dual cells cat #THPD-nfis) were added to the plates with compounds at 15,000 cells in 10 μL per well in RPMI media (Gibco, cat #11875) containing 10% human plasma in a low volume 384-well black wall clear bottom tissue culture plate (Corning, cat #3542) for SEAP assay and low volume solid white plate (Corning, cat #3826) for luciferase assay. One column of the plate was reserved for treatment with cGAMP at 100 μM for 100% activation calculation and one column for no treatment (DMSO only) for baseline activation. Plates were then incubated in 37 OC incubator at 5% CO2 for 20 hours.
(§4) In the SEAP assay, […] 2× QuantiBlue (Invivogen, cat #Rep-qb2) is added to 384 well black plates seeded with THP1 cells and incubated at 37° C. for 2 hours. Plates were read on the Envision (Perkin Elmer) at 620 nm wavelength (OD620). In the luciferase assay, 5 μl of Quantiluc (Invivogen, Rep-qlc2) is added to white 384 well plates seeded with THP1 cells and read at 5 minutes on the Envision (Perkin Elmer) using a luminescence protocol (RLU). For both cell lines, 100% activation was determined by value (RLU) of THP-1 Dual STING cells stimulated with 100 μM cGAMP (Invivogen, cat #TLRL-NACGA23-5).

[2] = system: STING / NF-κB pathway in THP1-Dual cells; experiment: STING THP1 Reporter Assay, NF-κB pathway (SEAP, QUANTI-Blue); format: cell-based; settings: 10% human plasma, 100% activation = 100 μM cGAMP, SEAP readout, read-out: THP1 Reporter Assays EC50 NFkB
Text: as §1, §2, §3, §4

[3] = target: T1, STING WT (His-TVMV-S-hSTING(155-341)-H232R) (Homo sapiens, UniProt Q86WV6, H232R); experiment: STING HTRF binding assay (time resolved FRET competition), STING WT; settings: 20 nM His-tagged STING WT cytoplasmic domain, 200 nM fluorescein-labeled cGAMP analog probe, one hour; read-out: HTRF Binding Assays IC50 WT
T1 construct: STING WT: His-TVMV-S-hSTING(155-341)-H232R
T1 sequence (Q86WV6 with tags, fused parts or gaps H232R): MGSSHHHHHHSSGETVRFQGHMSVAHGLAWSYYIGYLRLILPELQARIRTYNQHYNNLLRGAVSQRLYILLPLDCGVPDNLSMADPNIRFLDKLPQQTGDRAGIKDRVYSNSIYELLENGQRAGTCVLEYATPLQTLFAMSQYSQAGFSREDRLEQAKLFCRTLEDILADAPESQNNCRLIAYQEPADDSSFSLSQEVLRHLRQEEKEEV
Protocol: (§5) A time resolved FRET-based competition binding assay was used to assess test article binding to STING WT and STING AQ. His-tagged STING cytoplasmic domain (WT or AQ) at a concentration of 20 nM was incubated with 2.5 nM Tb-labeled anti-His antibody, test compound, and fluorescein-labeled cGAMP analog probe (BioLog cat. no. C195) at a concentration of 200 nM (STING WT) or 40 nM (STING AQ) in PBS containing 0.005% Tween-20 and 0.1% BSA for one hour. Fluorescence at 495 nm and 520 nm was measured using an EnVision microplate reader to quantify FRET between Tb-labeled anti-His antibody and fluorescein-labeled probe. Background was defined as the signal obtained in the absence of STING protein, and background subtracted FRET ratios were normalized to the maximum signal obtained in the absence of test compound. These values were converted to a percent inhibition. Percent inhibition was determined for test compounds at 11 concentrations. The IC50, defined as the concentration of competing test compound needed to reduce specific binding of the probe by 50%, was calculated using the 4 parameter logistic equation to fit the data
STING WT: His-TVMV-S-hSTING(155-341)-H232R • […] […] […] […] LRQEEKEEV (SEQ ID NO:1)

[4] = target: T2, STING AQ (His-TVMV-S-hSTING(155-341)-G230A-R293Q) (Homo sapiens, UniProt Q86WV6, G230A/H232R/R293Q); experiment: STING HTRF binding assay (time resolved FRET competition), STING AQ; settings: 20 nM His-tagged STING AQ cytoplasmic domain, 40 nM fluorescein-labeled cGAMP analog probe, one hour; read-out: HTRF Binding Assays IC50 AQ
T2 construct: STING AQ: His-TVMV-S-hSTING(155-341)-G230A-R293Q
T2 sequence (Q86WV6 with tags, fused parts or gaps G230A/H232R/R293Q): as the sequence (Q86WV6 with tags, fused parts or gaps H232R) above, with G99A, R162Q counted along it
Protocol: as §5
STING AQ: His-TVMV-S-hSTING(155-341)-G230A-R293Q • […] […] […] […] LRQEEKEEV (SEQ ID NO:2)

EC50 ([1]; 20 hours) [nM] | EC50 ([2]; 20 hours) [nM] | IC50 [3] [nM] | IC50 [4] [nM] | EC50 ([1]; Homo sapiens, THP1-Dual, 20 h) [nM] | EC50 ([2]; Homo sapiens, THP1-Dual, 20 h) [nM] | SMILES
4500 | 12000 | 60 | 10 | – | – | NC(=O)c1cccc2c1nnn2[C@@H]1O[C@@H]2COP(=O)(O)O[C@H]3[C@@H](F)[C@H](n4cnc5c(N)ncnc54)O[C@@H]3COP(=O)(S)O[C@@H]1[C@@H]2O (single isomer, unassigned) [Example 4-1]
700 | 1700 | 10 | 2 | – | – | NC(=O)c1cccc2c1nnn2[C@@H]1O[C@@H]2COP(=O)(O)O[C@H]3[C@@H](F)[C@H](n4cnc5c(N)ncnc54)O[C@@H]3COP(=O)(S)O[C@@H]1[C@@H]2O (single isomer, unassigned) [Example 4-2]
– | – | 10 | 10 | 3500 | 7600 | Nc1ncnc2c1ncn2[C@@H]1O[C@@H]2COP(=O)(S)O[C@@H]3[C@H](O)[C@@H](COP(=O)(O)O[C@H]2[C@H]1F)O[C@H]3n1nnc2c([N+](=O)[O-])cccc21 (single isomer, unassigned) [Example 5-1]
5600 | 13000 | – | 10 | – | – | Nc1ncnc2c1ncn2[C@@H]1O[C@@H]2COP(=O)(S)O[C@@H]3[C@H](O)[C@@H](COP(=O)(O)O[C@H]2[C@H]1F)O[C@H]3n1nnc2c([N+](=O)[O-])cccc21 (single isomer, unassigned) [Example 5-2]
1400 | 4100 | 20 | 10 | – | – | NC(=O)c1cccc2c1nnn2[C@@H]1O[C@@H]2COP(=O)(O)O[C@H]3[C@@H](F)[C@H](n4cnc5c(N)ncnc54)O[C@@H]3COP(=O)(S)O[C@@H]1[C@@H]2F (single isomer, unassigned) [Example 6-1]
8800 | 36800 | 50 | 4 | – | – | NC(=O)c1cccc2c1nnn2[C@@H]1O[C@@H]2COP(=O)(O)O[C@H]3[C@@H](F)[C@H](n4cnc5c(N)ncnc54)O[C@@H]3COP(=O)(S)O[C@@H]1[C@@H]2F (single isomer, unassigned) [Example 6-2]
600 | 2100 | 10 | 10 | – | – | Nc1ncnc2c1ncn2[C@@H]1O[C@@H]2COP(=O)(S)O[C@@H]3[C@H](O)[C@@H](COP(=O)(S)O[C@H]2[C@H]1F)O[C@H]3n1nnc2c([N+](=O)[O-])cccc21 (single isomer, unassigned) [Example 7-1]
28000 | 64000 | 240 | 40 | – | – | Nc1ncnc2c1ncn2[C@@H]1O[C@@H]2COP(=O)(S)O[C@@H]3[C@H](O)[C@@H](COP(=O)(S)O[C@H]2[C@H]1F)O[C@H]3n1nnc2c([N+](=O)[O-])cccc21 (single isomer, unassigned) [Example 7-2]
7200 | 15300 | 60 | 10 | – | – | Nc1ncnc2c1ncn2[C@@H]1O[C@@H]2COP(=O)(S)O[C@@H]3[C@H](O)[C@@H](COP(=O)(S)O[C@H]2[C@H]1F)O[C@H]3n1nnc2c([N+](=O)[O-])cccc21 (single isomer, unassigned) [Example 7-3]
5500 | 8000 | 50 | 10 | – | – | Nc1ncnc2c1ncn2[C@@H]1O[C@@H]2COP(=O)(S)O[C@@H]3[C@H](O)[C@@H](COP(=O)(S)O[C@H]2[C@H]1F)O[C@H]3n1nnc2c([N+](=O)[O-])cccc21 (single isomer, unassigned) [Example 7-4]
1000 | 2400 | 10 | 10 | – | – | NC(=O)c1cccc2c1nnn2[C@@H]1O[C@@H]2COP(=O)(S)O[C@H]3[C@@H](F)[C@H](n4cnc5c(N)ncnc54)O[C@@H]3COP(=O)(S)O[C@@H]1[C@@H]2O (single isomer, unassigned) [Example 8-1]
5200 | 7600 | 10 | 10 | – | – | NC(=O)c1cccc2c1nnn2[C@@H]1O[C@@H]2COP(=O)(S)O[C@H]3[C@@H](F)[C@H](n4cnc5c(N)ncnc54)O[C@@H]3COP(=O)(S)O[C@@H]1[C@@H]2O (single isomer, unassigned) [Example 8-2]
10000 | 15300 | 140 | 20 | – | – | NC(=O)c1cccc2c1nnn2[C@@H]1O[C@@H]2COP(=O)(S)O[C@H]3[C@@H](F)[C@H](n4cnc5c(N)ncnc54)O[C@@H]3COP(=O)(S)O[C@@H]1[C@@H]2O (single isomer, unassigned) [Example 8-3]
800 | 2200 | 20 | 4 | – | – | Nc1ncnc2c1ncn2[C@@H]1O[C@@H]2COP(=O)(S)O[C@@H]3[C@H](O)[C@@H](COP(=O)(S)O[C@H]2[C@H]1F)O[C@H]3n1nnc2c(C(F)(F)F)cccc21 (single isomer, unassigned) [Example 9-1]
7900 | 15700 | 130 | 10 | – | – | Nc1ncnc2c1ncn2[C@@H]1O[C@@H]2COP(=O)(S)O[C@@H]3[C@H](O)[C@@H](COP(=O)(S)O[C@H]2[C@H]1F)O[C@H]3n1nnc2c(C(F)(F)F)cccc21 (single isomer, unassigned) [Example 9-2]
69400 | > 100000 | 900 | 40 | – | – | Nc1ncnc2c1ncn2[C@@H]1O[C@@H]2COP(=O)(S)O[C@@H]3[C@H](O)[C@@H](COP(=O)(S)O[C@H]2[C@H]1F)O[C@H]3n1nnc2c(C(F)(F)F)cccc21 (single isomer, unassigned) [Example 9-3]
> 100000 | > 100000 | 12500 | 600 | – | – | Nc1ncnc2c1ncn2[C@@H]1O[C@@H]2COP(=O)(S)O[C@@H]3[C@H](O)[C@@H](COP(=O)(S)O[C@H]2[C@H]1F)O[C@H]3n1nnc2c(C(F)(F)F)cccc21 (single isomer, unassigned) [Example 9-4]
– | – | 1700 | – | > 100000 | > 100000 | Nc1ncnc2c1ncn2[C@@H]1O[C@@H]2COP(=O)(O)O[C@@H]3[C@H](O)[C@@H](COP(=O)(O)O[C@H]2[C@H]1O)O[C@H]3n1nnc2c(N)cccc21 [Example 21, (1R,6R,8R,9R,10S,15R,17R,18R)-17-(4-amino-1H-1,2,3-benzotriazol-1-yl)-8-(6-amino-9H-purin-9-yl)-3,9,12,18-tetrahydroxy-2,4,7,11,13,16-hexaoxa-3λ^5,12λ^5-diphosphatricyclo[13.2.1.0^6,10]octadecane-3,12-dione]
